The values below come from ChEMBL document CHEMBL4330060, “Design and development of some phenyl benzoxazole derivatives as a potent acetylcholinesterase inhibitor with antioxidant property to enhance learning and memory” (Eur J Med Chem, 2019).

For data set [1], the target named is T1, Acetylcholinesterase (Electrophorus electricus, UniProt O42275). As to the kind of experiment: Inhibition of Electric eel AChE using acetylthiocholine iodide as substrate after 10 mins measured for every mins by Ellman's method. (In general: DTNB colorimetry detects thiols as they appear.)
Another data set has as its target Cholinesterase (Homo sapiens, UniProt P06276). Nature of the data set: Inhibition of human serum BChE using butyrylthiocholine iodide as substrate after 10 mins measured for every mins by Ellman's method.
Data set [2] can be described thus: Antioxidant activity assessed as DPPH radical scavenging activity at 10 uM after 30 mins under dark condition relative to control. The data set is classed as functional.
Data set [3] is described as follows: Effective permeability of the compound by PAMPA. The data set is classed as ADME. The note with it: read-out: Peff.
The next data set in a line: in vitro. The note with it: PAMPA, pH 7.4. (In general: The PAMPA barrier holds no transporters, so it reflects passive diffusion.)
Data set [4] can be described thus: Selectivity index, ratio of IC50 for human serum BChE to IC50 for Electric eel AChE.
Data set [5] deals with T1, Acetylcholinesterase. As to the kind of experiment: Inhibition of Electric eel AChE using acetylthiocholine iodide as substrate after 10 mins measured for every mins by Lineweaver-Burk plot analysis.
Data set [6] has as its target Acetylcholinesterase (Homo sapiens) (UniProt P22303). Nature of the data set: Displacement of Propidium iodide from PAS region of AChE (unknown origin) after 20 hrs by fluorescence assay relative to control. The note with it: concentration not given here.
Data set [7] can be described thus: Acute toxicity in Swiss albino mouse assessed as mortality at 100 mg/kg, po measured at 14 days post administration. The data set is classed as organism-based. The following applies: in vivo, 336 h.
Data set [8] is described as follows: Acute toxicity in Swiss albino mouse assessed as abnormal behavior at 100 mg/kg, po measured at 14 days post administration. The data set is classed as organism-based. The note with it: in vivo, 336 h.
Data set [9] can be described thus: Acute toxicity in Swiss albino mouse up to 100 mg/kg, po measured until 14 days. The data set is classed as organism-based. The following applies: in vivo, 336 h.
In data set [10] the test system is Mus musculus. As to the kind of experiment: Cognitive enhancing effect in Swiss albino mouse assessed as reversal of scopolamine-induced reduction in spontaneous alteration score at 1 mg/kg, ip qd pretreated for 1 hr followed by scopolamine addition by Y-maze test. The data set is classed as functional, organism-based.
The subject of data set [11] is Mus musculus. As to the kind of experiment: Cognitive enhancing effect in Swiss albino mouse assessed as reversal of scopolamine-induced reduction in spontaneous alteration score at 5 mg/kg, ip qd pretreated for 1 hr followed by scopolamine addition by Y-maze test. The data set is classed as functional, organism-based.
For data set [12], the system named is Mus musculus. As to the kind of experiment: Cognitive enhancing effect in Swiss albino mouse assessed as reversal of scopolamine-induced anxiety by measuring increase in number of novel arm entries at 1 to 20 mg/kg, ip qd pretreated for 1 hr followed by scopolamine addition by Y-maze test. The data set is classed as functional, organism-based.
The subject of data set [13] is Mus musculus. Nature of the data set: Cognitive enhancing effect in Swiss albino mouse assessed as reversal of scopolamine-induced cainophobia behavior by measuring increase in number of novel arm entries at 1 to 20 mg/kg, ip qd pretreated for 1 hr followed by scopolamine addition by Y-maze test. The data set is classed as functional, organism-based.
Data set [14] deals with Mus musculus. Nature of the data set: Ex vivo inhibition of AChE in Swiss albino mouse brain at 5 mg/kg, ip qd pretreated for 1 hr followed by scopolamine addition using acetylthiocholine iodide as substrate by Ellman's method. The data set is classed as functional, organism-based.
Data set [15] in a line: Neurotoxicity in Swiss albino mouse assessed as motor coordination by measuring fall off time at 5 mg/kg, po after 1 hr by rota rod test (reference value: 310.61 +/- 26.64 sec). The data set is classed as toxicity, organism-based. The note with it: in vivo.
Data set [16] relates to Mus musculus. Nature of the data set: In vivo antioxidant activity in Swiss albino mouse brain assessed as decrease in MDA level at 5 mg/kg, ip qd pretreated for 1 hr followed by scopolamine addition by TBARS assay. The data set is classed as functional, organism-based.
Data set [17] deals with Mus musculus. As to the kind of experiment: In vivo antioxidant activity in Swiss albino mouse brain assessed as increase in catalase activity by measuring decrease in H2O2 level at 5 mg/kg, ip qd pretreated for 1 hr followed by scopolamine addition. The data set is classed as functional, organism-based.
Data set [18] relates to Mus musculus. As to the kind of experiment: In vivo antioxidant activity in Swiss albino mouse brain assessed as increase in GSH level at 5 mg/kg, ip qd pretreated for 1 hr followed by scopolamine addition. The data set is classed as functional, organism-based.
For data set [19], the system named is Mus musculus. Nature of the data set: In vivo antioxidant activity in Swiss albino mouse brain assessed as decrease in nitric oxide level at 5 mg/kg, ip qd pretreated for 1 hr followed by scopolamine addition by Griess reagent based assay. The data set is classed as functional, organism-based.
Data set [20] relates to Mus musculus. Nature of the data set: In vivo antioxidant activity in Swiss albino mouse brain assessed as increase in SOD level at 5 mg/kg, ip qd pretreated for 1 hr followed by scopolamine addition measured every 30 secs interval for 2 mins. The data set is classed as functional, organism-based.
For data set [21], the system named is Mus musculus. As to the kind of experiment: Memory enhancing effect in Swiss albino mouse assessed as reversal of scopolamine-induced reduction in latency time at 1 mg/kg, ip qd pretreated for 1 hr followed by scopolamine addition by passive avoidance test. The data set is classed as functional, organism-based.
In data set [22] the test system is Mus musculus. As to the kind of experiment: Memory enhancing effect in Swiss albino mouse assessed as reversal of scopolamine-induced reduction in latency time at 5 mg/kg, ip qd pretreated for 1 hr followed by scopolamine addition by passive avoidance test. The data set is classed as functional, organism-based.

Activity calls are given as the source filed them. The calls are words filed in the database; no cut-off is given here. Where only a bound is given, the exact number is not on record here.

T1 sequence (O42275 whole entry): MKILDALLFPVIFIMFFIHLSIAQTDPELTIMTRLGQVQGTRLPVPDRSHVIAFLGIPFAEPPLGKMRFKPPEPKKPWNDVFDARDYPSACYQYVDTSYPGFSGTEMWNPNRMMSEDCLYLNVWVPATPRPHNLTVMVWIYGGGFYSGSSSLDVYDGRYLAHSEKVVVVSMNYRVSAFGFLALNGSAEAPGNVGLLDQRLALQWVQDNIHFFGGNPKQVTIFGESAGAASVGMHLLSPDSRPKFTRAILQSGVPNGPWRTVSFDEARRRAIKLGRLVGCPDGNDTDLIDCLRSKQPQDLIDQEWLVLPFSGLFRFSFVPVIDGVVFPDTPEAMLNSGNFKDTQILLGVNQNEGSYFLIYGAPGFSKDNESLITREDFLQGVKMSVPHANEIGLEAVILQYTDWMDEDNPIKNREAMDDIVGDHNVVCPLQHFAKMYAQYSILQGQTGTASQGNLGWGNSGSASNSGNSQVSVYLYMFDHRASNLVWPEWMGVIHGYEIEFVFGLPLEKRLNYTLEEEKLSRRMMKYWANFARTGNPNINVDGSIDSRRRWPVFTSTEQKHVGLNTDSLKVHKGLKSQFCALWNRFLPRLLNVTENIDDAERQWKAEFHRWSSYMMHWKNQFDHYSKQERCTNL
Sequence of Cholinesterase (P06276 whole entry): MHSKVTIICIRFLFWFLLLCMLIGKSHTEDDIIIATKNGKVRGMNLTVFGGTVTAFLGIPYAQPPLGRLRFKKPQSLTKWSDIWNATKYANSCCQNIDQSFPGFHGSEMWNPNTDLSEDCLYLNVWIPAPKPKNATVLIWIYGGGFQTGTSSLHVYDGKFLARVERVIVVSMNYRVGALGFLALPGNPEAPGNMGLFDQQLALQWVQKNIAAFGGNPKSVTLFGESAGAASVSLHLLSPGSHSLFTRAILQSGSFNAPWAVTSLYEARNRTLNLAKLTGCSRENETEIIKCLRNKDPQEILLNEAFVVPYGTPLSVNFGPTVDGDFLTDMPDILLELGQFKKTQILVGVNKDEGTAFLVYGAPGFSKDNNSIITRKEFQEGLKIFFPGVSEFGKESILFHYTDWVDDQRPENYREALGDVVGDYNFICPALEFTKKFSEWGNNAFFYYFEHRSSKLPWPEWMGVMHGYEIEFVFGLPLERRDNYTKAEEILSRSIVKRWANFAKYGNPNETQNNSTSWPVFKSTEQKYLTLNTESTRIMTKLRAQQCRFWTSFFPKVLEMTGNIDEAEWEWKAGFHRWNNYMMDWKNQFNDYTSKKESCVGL
Sequence of Acetylcholinesterase (Homo sapiens) (P22303 whole entry): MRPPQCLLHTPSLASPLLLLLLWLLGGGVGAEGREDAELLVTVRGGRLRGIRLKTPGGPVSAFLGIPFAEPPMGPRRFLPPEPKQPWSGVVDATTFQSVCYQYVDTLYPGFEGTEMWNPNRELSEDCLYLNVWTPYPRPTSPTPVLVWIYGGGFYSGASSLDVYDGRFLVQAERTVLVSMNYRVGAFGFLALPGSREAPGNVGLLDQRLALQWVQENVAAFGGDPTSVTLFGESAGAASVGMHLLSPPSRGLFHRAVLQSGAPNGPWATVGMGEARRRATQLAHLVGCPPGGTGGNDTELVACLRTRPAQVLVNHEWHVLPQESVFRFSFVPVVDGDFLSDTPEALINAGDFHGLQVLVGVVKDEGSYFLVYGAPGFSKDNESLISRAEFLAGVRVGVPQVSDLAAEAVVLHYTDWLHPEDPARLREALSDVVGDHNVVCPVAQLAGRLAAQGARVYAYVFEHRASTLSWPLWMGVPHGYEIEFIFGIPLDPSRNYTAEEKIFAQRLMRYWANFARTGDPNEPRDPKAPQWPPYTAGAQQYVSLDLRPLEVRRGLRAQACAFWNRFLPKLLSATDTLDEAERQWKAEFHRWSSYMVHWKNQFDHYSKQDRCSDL
Description for in vitro: Effective permeability of the compound at pH 7.4 after 18 hrs by PAMPA-BBB assay

For the compound `O=[N+]([O-])c1ccc(CNc2ccc(-c3nc4ccccc4o3)cc2)cc1`, the figures for the half-maximal inhibitory concentration (IC50) against Acetylcholinesterase [1] and at Cholinesterase were 24.2 µM and over 50 µM, respectively. In data set [2], the Activity is 22.7%.
As for `Cc1nnc2n1-c1ccc(Cl)cc1C(c1ccccc1)=NC2` [ALPRAZOLAM], the Papp in data set [3] was 5.4 ×10⁻⁶ cm/s. For the same compound, in the data set “in vitro”, the Papp at 18 h stood at 4.2 ×10⁻⁶ cm/s.
For the compound `C(=N\c1ccc(-c2nc3ccccc3o2)cc1)/c1ccccc1`, the IC50 against Acetylcholinesterase [1] and against Cholinesterase was over 50 µM each time. Moreover, the Activity in data set [2] was under 10%.
For the compound `Oc1ccc(/C=N/c2ccc(-c3nc4ccccc4o3)cc2)cc1`, the 50% inhibitory concentration (IC50) – broadly, the point on the concentration scale where inhibition reaches its midpoint – was 0.94 µM against Acetylcholinesterase [1] and 27 µM against Cholinesterase. For the same compound, in data set [4], the Ratio IC50 is 28.7. In addition, in data set [2], the Activity was 31.8%.
As for `OC(CNc1ccc(Cl)cc1)CNc1ccc(-c2nc3ccccc3o2)cc1` (stereo unspecified), the 50% inhibitory concentration (IC50) is 0.363 µM against Acetylcholinesterase [1] and 2.29 µM on Cholinesterase. Further, the inhibition constant (Ki) (usually a measure of affinity in units of concentration, obtained from inhibition or displacement) at Acetylcholinesterase [5] was determined as 0.19 µM. In addition, the Ratio IC50 in [4] amounted to 6.3. The Activity in [2] was 49.6%; in [7], “Non-Toxic”; in data set [8] it was “Non-Toxic”; in [9] it was “Non-Toxic”. The inhibition (as a rule, the percentage by which the read-out fell short of the control) in [6] came out at 11.2%. The result in the data set with Mus musculus [10] was inactive. Moreover, the outcome with Mus musculus [11], in the data set on Mus musculus [12], with Mus musculus [13], with Mus musculus [16], in the data set on Mus musculus [17] and with Mus musculus [18] was Active. In addition, the outcome in the data set on Mus musculus [19] and in the data set with Mus musculus [20] was Active. Also, in the data set on Mus musculus [14], the inhibition entry was “Active”. In addition, the Time in data set [15] is listed as 298.75 s. This compound also displayed a Papp at 18 h in “in vitro” of 4.55 ×10⁻⁶ cm/s.
As to `Brc1ccc(/C=N/c2ccc(-c3nc4ccccc4o3)cc2)cc1`, the IC50 is 37.3 µM at Acetylcholinesterase [1] and over 50 µM on Cholinesterase. Also, the Activity in data set [2] is under 10%.
For `S=C(Nc1ccc(Br)cc1)Nc1ccc(-c2nc3ccccc3o2)cc1` the same measures were 8.72 µM, over 50 µM and 43.1%.
For `OC(CNc1ccc(Br)cc1)CNc1ccc(-c2nc3ccccc3o2)cc1` (stereo unspecified) the same measures were 1.31 µM, over 50 µM and 42.4%.
For `Brc1ccc(CNc2ccc(-c3nc4ccccc4o3)cc2)cc1` the same measures were 8.44 µM, over 50 µM and 18.5%.
Turning to `OC(CNc1ccccc1)CNc1ccc(-c2nc3ccccc3o2)cc1` (stereo unspecified), the IC50 against Acetylcholinesterase [1] stood at 0.842 µM; against Cholinesterase, 3.54 µM. Further, in data set [4], the Ratio IC50 turned out to be 4.2. For the same compound, the Activity in data set [2] was 48.2%.
As for `O=C1O[C@H]([C@@H](O)CO)C(O)=C1O`, in data set [2], the Activity came out at 56.6%.
As for `CC(C)c1ccc(/C=N/c2ccc(-c3nc4ccccc4o3)cc2)cc1`, the IC50 against Acetylcholinesterase [1] and against Cholinesterase was over 50 µM in each case. Besides, in [2], the Activity was under 10%.
Turning to `CC(C)c1ccc(CNc2ccc(-c3nc4ccccc4o3)cc2)cc1`, the IC50 on Acetylcholinesterase [1] and on Cholinesterase was over 50 µM throughout. Moreover, in [2], the Activity is 27.5%.
The compound `O=c1ccc2ccc(OCCCCCSc3nc4ccccc4o3)cc2o1` displayed an IC50 against Acetylcholinesterase [1] of 25.4 µM.
Consider `Oc1ccc(NCC(O)CNc2ccc(-c3nc4ccccc4o3)cc2)cc1` (stereo unspecified), for which the figures for the half-inhibitory concentration (IC50) against Acetylcholinesterase [1] and at Cholinesterase were 0.807 µM and 2.74 µM, respectively. In addition, in [4], the Ratio IC50 amounted to 3.4. In addition, the Activity in [2] turned out to be 50%.
Regarding `S=C(Nc1ccc(Cl)cc1)Nc1ccc(-c2nc3ccccc3o2)cc1`, the IC50 on Acetylcholinesterase [1] is 12.6 µM; at Cholinesterase, over 50 µM. Further, in data set [2], the Activity came out at 40%.
For `S=C(Nc1ccccc1)Nc1ccc(-c2nc3ccccc3o2)cc1`, the IC50 on Acetylcholinesterase [1] and on Cholinesterase was over 50 µM each time. The Activity in [2] was 45.3%.
On to `O=c1cc(-c2ccccc2)c2ccc(NCCCSc3nc4ccccc4o3)cc2o1`, for which the IC50 against Acetylcholinesterase [1] worked out at 13 µM.
As for `Oc1ccc(NC(=S)Nc2ccc(-c3nc4ccccc4o3)cc2)cc1`, the IC50 on Acetylcholinesterase [1] came out at 0.882 µM; on Cholinesterase it was 27.4 µM. Also, the Ratio IC50 in data set [4] was 31. Besides, the Activity in [2] is 50.2%.
On to `Clc1ccc(/C=N/c2ccc(-c3nc4ccccc4o3)cc2)cc1`, for which the concentration for half-maximal inhibition (IC50) was 2.27 µM at Acetylcholinesterase [1] and over 50 µM against Cholinesterase. In [2], the Activity was under 10%.
For `O=[N+]([O-])c1ccc(NC(=S)Nc2ccc(-c3nc4ccccc4o3)cc2)cc1` the same measures were 9.43 µM, over 50 µM and 45.9%.
Take `Oc1ccc(CNc2ccc(-c3nc4ccccc4o3)cc2)cc1`: the IC50 at Acetylcholinesterase [1] worked out at 0.723 µM; against Cholinesterase, 4.71 µM. Moreover, in data set [4], the Ratio IC50 was found to be 6.5. For the same compound, the Activity in data set [2] came out at 39.4%.
For the compound `CN(C)C(=O)Oc1ccccc1-c1nc2ccccc2o1`, on Acetylcholinesterase [1], the 50% inhibitory concentration (IC50) was determined as 58.2 µM.
As to `Clc1ccc(CNc2ccc(-c3nc4ccccc4o3)cc2)cc1`, the IC50 was 6.3 µM against Acetylcholinesterase [1] and over 50 µM at Cholinesterase. For the same compound, the Activity in [2] was 25.1%.
For `c1ccc(CNc2ccc(-c3nc4ccccc4o3)cc2)cc1` the same measures were 7.21 µM, over 50 µM and 24.1%.
For the compound `O=[N+]([O-])c1ccc(/C=N/c2ccc(-c3nc4ccccc4o3)cc2)cc1`, the concentration for half-maximal inhibition (IC50) on Acetylcholinesterase [1] is 1.79 µM; at Cholinesterase it was over 50 µM. For the same compound, the Activity in [2] was under 10%.
For `CC(C)c1ccc(NC(=S)Nc2ccc(-c3nc4ccccc4o3)cc2)cc1` the same measures were over 50 µM, over 50 µM and 42.3%.
For `O=[N+]([O-])c1ccc(NCC(O)CNc2ccc(-c3nc4ccccc4o3)cc2)cc1` (stereo unspecified) the same measures were 1.15 µM, over 50 µM and 44.4%.
Take `COc1cc2c(cc1OC)C(=O)C(CC1CCN(Cc3ccccc3)CC1)C2` (stereo unspecified) [DONEPEZIL]: the Activity in data set [2] was under 10%. Besides, the outcome in the data set with Mus musculus [10] and with Mus musculus [21] was Active. Further, in [15], the Time is recorded as 167.75 s.
Consider `CC(C)c1ccc(NCC(O)CNc2ccc(-c3nc4ccccc4o3)cc2)cc1` (stereo unspecified), for which the results for the IC50 at Acetylcholinesterase [1] and against Cholinesterase were 8.02 µM and over 50 µM, respectively. Besides, the Activity in data set [2] was 39.1%. Further, the result with Mus musculus [22] was Active.
